The target of this assay is human PD-L1 / Human PD-1 (Homo sapiens (Human), UniProt Q9NZQ7). Put plainly: Enzyme-Linked Immunosorbent Assay (ELISA), PD-1/PD-L1 binding. The following applies: Table 3; plate-coated human PD-L1, biotinylated human PD-1; read-out: ELISA IC50. The procedure, abridged:
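Human PD-L1 coated at 1 μg/mL overnight at 4° C; samples diluted 1:5 and incubated with human PD-1 and biotin (0.3 μg/mL) for 1 h at 37° C. Bound PD-1 detected with streptavidin-HRP and TMB (20 min, 37° C), acid-stopped, absorbance at 450 nm.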
Sequence of human PD-L1 / Human PD-1 (Q9NZQ7 19-239): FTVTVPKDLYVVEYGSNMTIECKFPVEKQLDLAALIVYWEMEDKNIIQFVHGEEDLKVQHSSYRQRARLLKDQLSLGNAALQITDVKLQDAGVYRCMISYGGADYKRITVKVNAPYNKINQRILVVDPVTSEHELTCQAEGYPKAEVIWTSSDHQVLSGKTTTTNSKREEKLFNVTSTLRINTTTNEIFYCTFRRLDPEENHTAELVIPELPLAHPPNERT
By IC50 is commonly meant the concentration needed to halve the response being measured. For `Cn1ccnc1CNCc1cc(Cl)c(O[C@H]2CCc3c(-c4ccccc4F)cccc32)cc1OCc1cncc(C#N)c1` [Example 3.075], the IC50 lay within 100 to 500 nM.

Take `CC(NCc1cc(Cl)c(O[C@H]2CCc3c(-c4ccccc4F)cccc32)cc1OCc1cncc(C#N)c1)C(=O)c1ccc(O)c(O)c1` (stereo partly shown) [Example 3.076]: the IC50 is 100 to 500 nM.

On to `N#Cc1cncc(COc2cc(O[C@H]3CCc4c(-c5ccccc5F)cccc43)c(Cl)cc2CNCCN2CCCCC2CO)c1` (stereo partly shown) [Example 3.077], for which the IC50 was 100 to 500 nM.

Take `COC(=O)Cc1ccccc1-c1cccc2c1CC[C@@H]2Oc1cc(OCc2cncc(C#N)c2)c(CN[C@@H](CO)C(=O)O)cc1Cl` [Example 3.078]: the IC50 was 500 to 20000 nM.

For the compound `N#Cc1cncc(COc2cc(O[C@H]3CCc4c(-c5ccccc5O)cccc43)c(Cl)cc2CN[C@@H](CO)C(=O)O)c1` [Example 3.079], the IC50 is 100 to 500 nM.

For the compound `CN(C)CCCCCNCc1cc(Cl)c(O[C@H]2CCc3c(-c4ccccc4F)cccc32)cc1OCc1cncc(C#N)c1` [Example 3.080], the IC50 was less than 100 nM.

Consider `N#Cc1cncc(COc2cc(O[C@H]3CCc4c(-c5ccccc5F)cccc43)c(Cl)cc2CNCc2ncc(-c3ccccc3)[nH]2)c1` [Example 3.081], for which the IC50 was 500 to 20000 nM.

For the compound `Cc1n[nH]c(C)c1CNCc1cc(Cl)c(O[C@H]2CCc3c(-c4ccccc4F)cccc32)cc1OCc1cncc(C#N)c1` [Example 3.082], the IC50 was 100 to 500 nM.

On to `N#Cc1cncc(COc2cc(O[C@H]3CCc4c(-c5ccccc5F)cccc43)c(Cl)cc2CN[C@H](CNC(=N)N)C(=O)O)c1` [Example 3.083], for which the IC50 is less than 100 nM.

In the case of `N#Cc1cncc(COc2cc(O[C@H]3CCc4c(-c5ccccc5F)cccc43)c(Cl)cc2CNCc2cccnn2)c1` [Example 3.084], the half-inhibitory concentration (IC50) was less than 100 nM.

As for `CCc1cc(CNCc2cc(Cl)c(O[C@H]3CCc4c(-c5ccccc5F)cccc43)cc2OCc2cncc(C#N)c2)on1` [Example 3.085], the IC50 lay in the range of 500 to 20000 nM.

As to `C[C@H](NCc1cc(Cl)c(O[C@H]2CCc3c(-c4ccccc4F)cccc32)cc1OCc1cncc(C#N)c1)C(=O)N[C@@H](C)P(=O)(O)O` [Example 3.086], the IC50 was less than 100 nM.

Consider `Cc1cc2cc(CNCc3cc(Cl)c(O[C@H]4CCc5c(-c6ccccc6F)cccc54)cc3OCc3cncc(C#N)c3)ccc2[nH]1` [Example 3.087], for which the IC50 lay within 500 to 20000 nM.

For `N#Cc1cncc(COc2cc(O[C@H]3CCc4c(-c5ccccc5F)cccc43)c(Cl)cc2CNCCCCN(CCO)CCO)c1` [Example 3.088], the IC50 fell in the range of 100 to 500 nM.

Turning to `N#Cc1cncc(COc2cc(O[C@H]3CCc4c(-c5ccccc5F)cccc43)c(Cl)cc2CNCCCN2CCN(CCO)CC2)c1` [Example 3.089], the IC50 was in the range of 100 to 500 nM.

`CC(C)c1nccn1CCCNCc1cc(Cl)c(O[C@H]2CCc3c(-c4ccccc4F)cccc32)cc1OCc1cncc(C#N)c1` [Example 3.090]: the IC50 is 100 to 500 nM.

Take `Cn1cnc(CNCc2cc(Cl)c(O[C@H]3CCc4c(-c5ccccc5F)cccc43)cc2OCc2cncc(C#N)c2)c1` [Example 3.091]: the IC50 was less than 100 nM.

For the compound `N#Cc1cncc(COc2cc(O[C@H]3CCc4c(-c5ccccc5F)cccc43)c(Cl)cc2CNCc2ccc(C(N)=O)cc2)c1` [Example 3.092], the IC50 was 100 to 500 nM.

Regarding `N#Cc1cncc(COc2cc(O[C@H]3CCc4c(-c5ccccc5F)cccc43)c(Cl)cc2CN[C@H]2CCc3ccc(O)cc3C2)c1` [Example 3.093], the IC50 fell in the range of 100 to 500 nM.

As for `N#Cc1cncc(COc2cc(O[C@H]3CCc4c(-c5ccccc5F)cccc43)c(Cl)cc2CNC(Cc2cccnc2)C(=O)O)c1` (stereo partly shown) [Example 3.094], the IC50 is less than 100 nM.

As to `CC(NCc1cc(Cl)c(O[C@H]2CCc3c(-c4ccccc4F)cccc32)cc1OCc1cncc(C#N)c1)C(=O)NC(CO)C(=O)O` (stereo partly shown) [Example 3.095], the IC50 is less than 100 nM.

Take `N#Cc1cncc(COc2cc(O[C@H]3CCc4c(-c5ccccc5F)cccc43)c(Cl)cc2CN[C@@H](CNC(=N)N)C(=O)O)c1` [Example 3.096]: the IC50 lay within 100 to 500 nM.

Turning to `N#Cc1cncc(COc2cc(O[C@H]3CCc4c(-c5ccccc5F)cccc43)c(Cl)cc2CNc2cncc(CO)c2)c1` [Example 3.097], the IC50 was 500 to 20000 nM.

Regarding `N#Cc1cncc(COc2cc(O[C@H]3CCc4c(-c5ccccc5F)cccc43)c(Cl)cc2CN[C@H](CCCNC(=N)N)C(=O)O)c1` [Example 3.098], the IC50 was 100 to 500 nM.

`CC(C)[C@@H](NCc1cc(Cl)c(O[C@H]2CCc3c(-c4ccccc4F)cccc32)cc1OCc1cncc(C#N)c1)C(=O)O` [Example 3.099]: the IC50 lay within 100 to 500 nM.

As to `O=C(O)[C@H](CO)NCc1cc(Cl)c(O[C@H]2CCc3c(-c4ccccc4F)cccc32)cc1OCc1cncc(Br)c1` [Example 3.100], the IC50 is less than 100 nM.

`Cn1nnc(-c2cncc(COc3cc(O[C@H]4CCc5c(-c6ccccc6F)cccc54)c(Cl)cc3CN[C@@H](CO)C(=O)O)c2)n1` [Example 3.101]: the IC50 lay in the range of 100 to 500 nM.

As to `N#Cc1cncc(COc2cc(O[C@H]3CCc4c(-c5ccccc5F)cccc43)c(Cl)cc2CN[C@H](Cc2ccc(O)cc2)C(=O)O)c1` [Example 3.102], the IC50 was 500 to 20000 nM.

Consider `N#Cc1cncc(COc2cc(O[C@H]3CCc4c(-c5ccccc5F)cccc43)c(Cl)cc2CN[C@@H](Cc2c[nH]cn2)C(=O)O)c1` [Example 3.103], for which the IC50 lay in the range of 100 to 500 nM.

`N#Cc1cncc(COc2cc(O[C@H]3CCc4c(-c5ccccc5F)cccc43)c(Cl)cc2CN[C@H](CC(N)=O)C(=O)O)c1` [Example 3.104]: the IC50 is less than 100 nM.

As to `N#Cc1cncc(COc2cc(O[C@H]3CCc4c(-c5ccccc5F)cccc43)c(Cl)cc2CN[C@@H](CC(=O)O)C(=O)O)c1` [Example 3.105], the IC50 lay within 100 to 500 nM.

`Cn1nccc1-c1cncc(COc2cc(O[C@H]3CCc4c(-c5ccccc5F)cccc43)c(Cl)cc2CN[C@@H](CO)C(=O)O)c1` [Example 3.106]: the IC50 was in the range of 100 to 500 nM.

For the compound `N#Cc1cncc(COc2cc(O[C@H]3CCc4c(-c5ccc6c(c5)OC(F)(F)O6)cccc43)c(Cl)cc2CN[C@@H](CO)C(=O)O)c1` [Example 3.107], the IC50 was in the range of 500 to 20000 nM.

In the case of `O=C(O)[C@H](CO)NCc1cc(Cl)c(O[C@H]2CCc3c(-c4ccccc4F)cccc32)cc1OCc1cncc(-c2nn[nH]n2)c1` [Example 3.108], the IC50 is 100 to 500 nM.

For the compound `COC(=O)[C@H](CO)NC(C)c1cc(Cl)c(O[C@H]2CCc3c(-c4ccccc4F)cccc32)cc1OCc1cncc(C#N)c1` (stereo partly shown) [Example 3.109], the IC50 fell in the range of 500 to 20000 nM.

Consider `N#Cc1cncc(COc2cc(O[C@H]3CCc4c(-c5ccc6c(c5F)OCO6)cccc43)c(Cl)cc2CN[C@@H](CO)C(=O)O)c1` [Example 3.110], for which the IC50 is less than 100 nM.

For the compound `CC(N[C@@H](CO)C(=O)O)c1cc(Cl)c(O[C@H]2CCc3c(-c4ccc(O)cc4)cccc32)cc1OCc1cncc(C#N)c1` (stereo partly shown) [Example 3.111], the IC50 fell in the range of 500 to 20000 nM.

As for `CC(N[C@@H](CO)C(=O)O)c1cc(Cl)c(O[C@H]2CCc3c(C4=CCCC4)cccc32)cc1OCc1cncc(C#N)c1` (stereo partly shown) [Example 3.112], the IC50 is 100 to 500 nM.

Take `CC(N[C@@H](CO)C(=O)O)c1cc(Cl)c(O[C@H]2CCc3c(-c4cccc5c4OCCO5)cccc32)cc1OCc1cncc(C#N)c1` (stereo partly shown) [Example 3.113]: the IC50 lay in the range of 500 to 20000 nM.

Consider `N#Cc1cncc(COc2cc(O[C@H]3CCc4c(-c5ccccc5F)cccc43)c(Cl)cc2CN2CC(O)C2)c1` [Example 3.114], for which the IC50 fell in the range of 500 to 20000 nM.
